# Laboratory results taken from patent US11130733B2, “4-OXO-alkylated tetramic acid compound, preparation method and use thereof” (BEIJING JOEKAI BIOTECH. LLC, priority 2017, dated 2021).
# Legend:
# Type in all cases: cell-based
# [1] = system: Salmonella typhimurium TA100; test: Mini Ames experiment, strain TA100
# Procedure: (§1) Histidine auxotrophic strains of Salmonella typhimurium were cultured in a special medium with quite a low content of histidine. The strains were difficult to divide due to lack of nutrition. If a test compound has mutagenicity, a large number of cells will undergo reverse mutation, synthesizing histidine by themselves and developing into colonies visible to the naked eye. In view of the close relationship between mutagenicity and carcinogenesis of chemicals, this method has been widely used in screening carcinogens. Some chemicals need metabolic activation to induce mutagenicity. Mammalian microsomal enzyme S9 can be added into the test system to eliminate the influence of metabolic activation on generation of mutagenicity.
# (§2) […] Mini Ames test with compound 50561
# hERG potassium channel = hERG potassium channel (Homo sapiens, UniProt Q12809); test: hERG current, whole-cell patch clamp on HEK-hERG stable cell line
# Sequence of hERG potassium channel (Q12809 whole entry): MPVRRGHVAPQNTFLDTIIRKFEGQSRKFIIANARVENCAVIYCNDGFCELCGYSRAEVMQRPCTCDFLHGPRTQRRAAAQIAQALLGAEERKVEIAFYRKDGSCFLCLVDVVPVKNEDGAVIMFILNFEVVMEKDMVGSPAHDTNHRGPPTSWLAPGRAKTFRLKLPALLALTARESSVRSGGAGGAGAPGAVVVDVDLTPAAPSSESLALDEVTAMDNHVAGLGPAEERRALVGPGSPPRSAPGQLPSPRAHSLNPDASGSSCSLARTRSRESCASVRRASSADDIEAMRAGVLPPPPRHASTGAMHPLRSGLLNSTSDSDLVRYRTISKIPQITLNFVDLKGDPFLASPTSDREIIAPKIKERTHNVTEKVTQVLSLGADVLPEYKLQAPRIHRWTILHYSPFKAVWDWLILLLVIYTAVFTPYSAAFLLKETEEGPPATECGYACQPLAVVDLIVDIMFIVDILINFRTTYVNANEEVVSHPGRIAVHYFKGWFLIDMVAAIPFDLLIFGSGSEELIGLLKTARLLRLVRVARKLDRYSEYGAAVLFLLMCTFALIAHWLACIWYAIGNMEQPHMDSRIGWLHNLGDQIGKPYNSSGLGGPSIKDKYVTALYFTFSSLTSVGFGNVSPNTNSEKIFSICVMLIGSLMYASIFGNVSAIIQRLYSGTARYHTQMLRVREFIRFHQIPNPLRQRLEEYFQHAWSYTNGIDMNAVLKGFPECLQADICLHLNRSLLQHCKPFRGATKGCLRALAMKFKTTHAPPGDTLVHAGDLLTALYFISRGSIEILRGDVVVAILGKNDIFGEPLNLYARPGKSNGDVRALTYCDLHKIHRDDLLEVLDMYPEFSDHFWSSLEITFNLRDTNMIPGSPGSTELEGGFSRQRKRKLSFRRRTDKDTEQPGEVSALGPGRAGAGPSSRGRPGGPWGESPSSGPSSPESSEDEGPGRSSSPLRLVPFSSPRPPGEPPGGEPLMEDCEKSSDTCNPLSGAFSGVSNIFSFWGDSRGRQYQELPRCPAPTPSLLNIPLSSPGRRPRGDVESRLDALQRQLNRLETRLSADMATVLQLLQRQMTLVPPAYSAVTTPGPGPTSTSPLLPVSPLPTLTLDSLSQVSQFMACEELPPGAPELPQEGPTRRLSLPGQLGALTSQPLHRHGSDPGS
# Source text: Rapidly activated human delayed rectifier outward potassium current (IKr) is mainly mediated by hERG ion channels, and participates in human cardiomyocyte repolarization. Pharmaceutical blockade of this current is the main cause of prolonged QT syndrome, even acute arrhythmia and sudden death clinically.
# In this experiment, a stable cell line HEK-hERG (from the Academy of Military Medical Sciences) was selected, and the whole-cell patch clamp technique was used to record the hERG current. Cell suspension was collected and added to a 35 mm culture dish, which was placed on an inverted microscope carrier. After cell attachment, perfusion was performed with an extracellular fluid at a flow rate of 1-2 mL/min. A glass microelectrode was drawn in two steps by a micropipette puller, and after filling with electrode inner fluid, the water resistance of the glass microelectrode was 2-5 MΩ. After the whole cell recording mode was established, the clamping potential was maintained to −80 mV. A depolarization voltage was exerted to +60 mV for 850 ms, followed by repolarization to −50 mV for 1275 ms to induce an hERG tail current. After current stabilization, continuous extracellular perfusion administration from a low concentration to a high concentration was adopted. Starting from the low concentration, continuous perfusion was performed until the efficacy was stable, followed by perfusion of the next concentration. When the inhibitory rate of a compound or positive control to the hERG current was less than 50%, the CV of each of five consecutive current values was less than 10%. When the inhibitory rate of a compound or positive control to the hERG current was more than 50% but less than 70%, the CV of each of five consecutive current values was less than 20%. If a current amplitude was reduced by less than 200 pA, or if the inhibitory rate was more than 70%, the CV of each of five consecutive current values was less than 30%.
# A certain amount of a test sample was weighed and dissolved into DMSO to prepare a 30 mM stock solution. Prior to the experiment, the above stock solution was diluted by DMSO 10 times and 3 times step by step, and then the solution was diluted by extracellular fluid to a required concentration. The solution at working concentration should be checked for precipitation before use. If precipitation existed, the stock solution would be diluted to increase the final concentration of DMSO in the extracellular fluid. However, the final concentration of DMSO in the extracellular fluid would not exceed 0.5%. Continuous perfusion from low to high concentrations was done during the experiment. The half inhibitory concentration (IC50) of the test sample was obtained by the best fitting of Logistic equation.
# When data were processed, stimulus release and signal acquisition were carried out by the software patchmaster; and a patch clamp amplifier amplified the signal and filtered it to 10 KHz. Fitmaster, excel, spass 21.0, and the like were used for further data analysis and curve fitting. The data were shown as mean values±standard deviation. In data processing, when the blocking effect on hERG was determined, the peak value of a tail current and its baseline were corrected. The inhibitory rates of the tail current were used to show the effects of various compounds at different concentrations. The inhibitory rate=100×(the peak value of the tail current before administration−the peak value of the tail current after administration)/the peak value of the tail current before administration %. IC50 values were fitted by the Hill equation:
# [formula] wherein, y: I/Icontrol; max: 100%; min: 0%; [drug]: concentration of the test sample; nH: Hill slope; IC50: maximum half inhibition concentration of the test substance.
# To induce a peak current of hERG tail current, the clamping potential was maintained at −80 mV, depolarized to 60 mV for 0.85 s, and then repolarized to −50 mV for 1.275 s. […]
# [2] = system: Salmonella typhimurium TA98; test: Mini Ames experiment, strain TA98
# Procedure: as §1, §2
# [3] = TA100, With Metabolic Activation, 1.5 μg per well
# [4] = TA100, With Metabolic Activation, 4 μg per well
# [5] = TA100, With Metabolic Activation, 10 μg per well
# [6] = TA100, With Metabolic Activation, 25 μg per well
# [7] = TA100, With Metabolic Activation, 64 μg per well
# [8] = TA100, With Metabolic Activation, 160 μg per well
# [9] = TA100, With Metabolic Activation, 400 μg per well
# [10] = TA100, With Metabolic Activation, 1000 μg per well
# [11] = TA100, Without Metabolic Activation, 1.5 μg per well
# [12] = TA100, Without Metabolic Activation, 4 μg per well
# [13] = TA100, Without Metabolic Activation, 10 μg per well
# [14] = TA100, Without Metabolic Activation, 25 μg per well
# [15] = TA100, Without Metabolic Activation, 64 μg per well
# [16] = TA100, Without Metabolic Activation, 160 μg per well
# [17] = TA100, Without Metabolic Activation, 400 μg per well
# [18] = TA100, Without Metabolic Activation, 1000 μg per well
# [19] = human, Inhibitory effect, Mean value ± standard deviation
# [20] = human, Inhibitory effect, individual cells 1-4
# [21] = TA98, With Metabolic Activation, 1.5 μg per well
# [22] = TA98, With Metabolic Activation, 4 μg per well
# [23] = TA98, With Metabolic Activation, 10 μg per well
# [24] = TA98, With Metabolic Activation, 25 μg per well
# [25] = TA98, With Metabolic Activation, 64 μg per well
# [26] = TA98, With Metabolic Activation, 160 μg per well
# [27] = TA98, With Metabolic Activation, 400 μg per well
# [28] = TA98, With Metabolic Activation, 1000 μg per well
# [29] = TA98, Without Metabolic Activation, 1.5 μg per well
# [30] = TA98, Without Metabolic Activation, 4 μg per well
# [31] = TA98, Without Metabolic Activation, 10 μg per well
# [32] = TA98, Without Metabolic Activation, 25 μg per well
# [33] = TA98, Without Metabolic Activation, 64 μg per well
# [34] = TA98, Without Metabolic Activation, 160 μg per well
# [35] = TA98, Without Metabolic Activation, 400 μg per well
# [36] = TA98, Without Metabolic Activation, 1000 μg per well
smiles,measurement,setting,value
O=C1C=C(OCc2ccc(F)cc2)[C@H](Cc2ccccc2)N1 [Compound 50561],Mean Revertants Per Well,[1]; [3],25.33
same,Ratio Treated/Solvent,[1]; [3],0.78
same,Mean Revertants Per Well,[1]; [4],30.33
same,Ratio Treated/Solvent,[1]; [4],0.93
same,Mean Revertants Per Well,[1]; [5],32.33
same,Ratio Treated/Solvent,[1]; [5],0.99
same,Mean Revertants Per Well,[1]; [6],28.67
same,Ratio Treated/Solvent,[1]; [6],0.88
same,Mean Revertants Per Well,[1]; [7],31.00
same,Ratio Treated/Solvent,[1]; [7],0.95
same,Mean Revertants Per Well,[1]; [8],28.33
same,Ratio Treated/Solvent,[1]; [8],0.87
same,Mean Revertants Per Well,[1]; [9],0.00
same,Ratio Treated/Solvent,[1]; [9],0.00
same,Mean Revertants Per Well,[1]; [10],0.00
same,Ratio Treated/Solvent,[1]; [10],0.00
same,Mean Revertants Per Well,[1]; [11],25.67
same,Ratio Treated/Solvent,[1]; [11],1.04
same,Mean Revertants Per Well,[1]; [12],25.33
same,Ratio Treated/Solvent,[1]; [12],1.03
same,Mean Revertants Per Well,[1]; [13],28.67
same,Ratio Treated/Solvent,[1]; [13],1.16
same,Mean Revertants Per Well,[1]; [14],19.00
same,Ratio Treated/Solvent,[1]; [14],0.77
same,Mean Revertants Per Well,[1]; [15],23.33
same,Ratio Treated/Solvent,[1]; [15],0.95
same,Mean Revertants Per Well,[1]; [16],17.33
same,Ratio Treated/Solvent,[1]; [16],0.70
same,Mean Revertants Per Well,[1]; [17],0.00
same,Ratio Treated/Solvent,[1]; [17],0.00
same,Mean Revertants Per Well,[1]; [18],0.00
same,Ratio Treated/Solvent,[1]; [18],0.00
same,mutagenicity,"[1]; TA100, presence or absence of S9",no obvious mutagenicity
same,Hill coefficient,"hERG potassium channel; Hill equation fit, N=4",1.01
same,IC50,hERG potassium channel; human,26.7 µM
same,inhibition at 300 nM,hERG potassium channel; [19],0.84 ± 3.93%
same,inhibition at 1 µM,hERG potassium channel; [19],3.43 ± 4.42%
same,inhibition at 3 µM,hERG potassium channel; [19],11.3 ± 4.09%
same,inhibition at 10 µM,hERG potassium channel; [19],25.7 ± 1.31%
same,inhibition at 30 µM,hERG potassium channel; [19],53.6 ± 3.6%
same,inhibition at 10 µM,hERG potassium channel; [20],24.1%
same,inhibition at 30 µM,hERG potassium channel; [20],59.6%
same,Mean Revertants Per Well,[2]; [21],8.67
same,Ratio Treated/Solvent,[2]; [21],1.04
same,Mean Revertants Per Well,[2]; [22],13.33
same,Ratio Treated/Solvent,[2]; [22],1.60
same,Mean Revertants Per Well,[2]; [23],9.33
same,Ratio Treated/Solvent,[2]; [23],1.12
same,Mean Revertants Per Well,[2]; [24],12.67
same,Ratio Treated/Solvent,[2]; [24],1.52
same,Mean Revertants Per Well,[2]; [25],12.33
same,Ratio Treated/Solvent,[2]; [25],1.48
same,Mean Revertants Per Well,[2]; [26],7.00
same,Ratio Treated/Solvent,[2]; [26],0.84
same,Mean Revertants Per Well,[2]; [27],0.00
same,Ratio Treated/Solvent,[2]; [27],0.00
same,Mean Revertants Per Well,[2]; [28],0.00
same,Ratio Treated/Solvent,[2]; [28],0.00
same,Mean Revertants Per Well,[2]; [29],9.00
same,Ratio Treated/Solvent,[2]; [29],1.32
same,Mean Revertants Per Well,[2]; [30],8.00
same,Ratio Treated/Solvent,[2]; [30],1.17
same,Mean Revertants Per Well,[2]; [31],8.00
same,Ratio Treated/Solvent,[2]; [31],1.17
same,Mean Revertants Per Well,[2]; [32],8.33
same,Ratio Treated/Solvent,[2]; [32],1.22
same,Mean Revertants Per Well,[2]; [33],7.33
same,Ratio Treated/Solvent,[2]; [33],1.07
same,Mean Revertants Per Well,[2]; [34],7.33
same,Ratio Treated/Solvent,[2]; [34],1.07
same,Mean Revertants Per Well,[2]; [35],0.00
same,Ratio Treated/Solvent,[2]; [35],0.00
same,Mean Revertants Per Well,[2]; [36],0.00
same,Ratio Treated/Solvent,[2]; [36],0.00|
same,mutagenicity,"[2]; TA98, presence or absence of S9",no obvious mutagenicity
